Results reported in patent US10844092B2, “Peptide for promoting regeneration of dentin or dental pulp tissue” (HysensBio Co., Ltd., priority 2016, dated 2020).

The substances below were run on Dspp gene (assay: mRNA level of Dspp gene in MDPC-23 cells by real-time PCR). Conditions: 48 hours, ratio relative to Dspp mRNA level of control group, triplicate.
Format: cell-based, mouse
Description: The MDPC-23 cells cultured in Example 2-1 were treated with the peptides of the respective groups which were synthesized in Example 1, and cultured for 48 hours. Then, mRNA levels of an odontoblast differentiation marker Dspp gene expressed in the MDPC-23 cells were measured, and a ratio of the measured Dspp mRNA level relative to a Dspp mRNA level measured in a control group was calculated, respectively (Tables 13 to 24). Further, mean values of the Dspp mRNA levels measured in the peptides of respective groups were compared between the groups (FIG. 1B). In this regard MDPC-23 cells which were treated with none of the peptides of the present invention were used as a control group.
The expression levels of the Dspp gene were measured by RT-PCR and real time PCR analysis: In detail, total RNA was extracted from the MDPC-23 cells with TRIzol reagent. 2 μg of the total RNA, 1 μl of reverse transcriptase, and 0.5 μg oligo (dT) were used to synthesize cDNA. The synthesized cDNA were used in real-time polymerase chain reaction. The real-time polymerase chain reaction was performed on an ABI PRISM 7500 sequence detection system (Applied Biosystems) using the following primers and a SYBR GREEN PCR Master Mix (Takara, Japan). The real-time polymerase chain reaction was performed under conditions of 94° C., 1 min; 95° C., 15 sec 60° C., 34 sec for 40 cycles. Results were analyzed by a comparative cycle threshold (CT) method. In this regard, Gapdh gene was used as an internal control. The experiments were performed in triplicate, and then mean values and standard deviations thereof were taken as measured values.

Point of comparison: “56 (KYRQKRRNYK; Synthetic construct of novel peptide) [compound 56]”, “mRNA level of Dspp gene, Mean” value 1.701. Against it:
- 28 (KYQRRRRSYK; Synthetic construct of novel peptide) [compound 28] — higher, 2.453
- 12 (KYQRRRRSKY; Synthetic construct of novel peptide) [compound 12] — lower, 1.548
- 18 (KYQRRKRNYK; Synthetic construct of novel peptide) [compound 18] — higher, 2.319
- 52 (KYRQRRRNYK; Synthetic construct of novel peptide) [compound 52] — higher, 2.019
- 40 (KYRQKRRNKY; Synthetic construct of novel peptide) [compound 40] — higher, 2.219
- 50 (KYRQRKRNYK; Synthetic construct of novel peptide) [compound 50] — higher, 1.887
- 64 (KYRQKRRSYK; Synthetic construct of novel peptide) [compound 64] — higher, 1.967
- 77 (KYKQKKKSKY; Synthetic construct of novel peptide) [compound 77] — higher, 1.729
- 79 (KYKQKKRSKY; Synthetic construct of novel peptide) [compound 79] — higher, 2.231
- 92 (KYKQRRRSYK; Synthetic construct of novel peptide) [compound 92] — higher, 4.211
- 36 (KYRQRRRNKY; Synthetic construct of novel peptide) [compound 36] — higher, 2.319
- 6 (KYQRKRKNKY; Synthetic construct of novel peptide) [compound 6] — higher, 1.746
- 86 (KYKQKRKNYK; Synthetic construct of novel peptide) [compound 86] — higher, 3.705
- 96 (KYKQKRRSYK; Synthetic construct of novel peptide) [compound 96] — higher, 5.211
- 60 (KYRQRRRSYK; Synthetic construct of novel peptide) [compound 60] — higher, 2.107
- 43 (KYRQRRKSKY; Synthetic construct of novel peptide) [compound 43] — lower, 1.669
- 9 (KYQRRKKSKY; Synthetic construct of novel peptide) [compound 9] — higher, 1.854
- 31 (KYQRKKRSYK; Synthetic construct of novel peptide) [compound 31] — higher, 2.371
- 21 (KYQRKKKNYK; Synthetic construct of novel peptide) [compound 21] — higher, 1.893
- 17 (KYQRRKKNYK; Synthetic construct of novel peptide) [compound 17] — higher, 2.117
- 95 (KYKQKKRSYK; Synthetic construct of novel peptide) [compound 95] — higher, 4.620
- 74 (KYKQRKRSKY; Synthetic construct of novel peptide) [compound 74] — higher, 2.011
- 46 (KYRQKRKSKY; Synthetic construct of novel peptide) [compound 46] — higher, 1.887
- 30 (KYQRKRKSYK; Synthetic construct of novel peptide) [compound 30] — higher, 2.512
- 58 (KYRQRKRSYK; Synthetic construct of novel peptide) [compound 58] — higher, 1.998
- 88 (KYKQKRRNYK; Synthetic construct of novel peptide) [compound 88] — higher, 4.021
- 51 (KYRQRRKNYK; Synthetic construct of novel peptide) [compound 51] — lower, 1.601
- 19 (KYQRRRKNYK; Synthetic construct of novel peptide) [compound 19] — higher, 1.931
- 22 (KYQRKRKNYK; Synthetic construct of novel peptide) [compound 22] — higher, 2.412
- 29 (KYQRKKKSYK; Synthetic construct of novel peptide) [compound 29] — higher, 1.883
- 34 (KYRQRKRNKY; Synthetic construct of novel peptide) [compound 34] — higher, 1.931
- 55 (KYRQKKRNYK; Synthetic construct of novel peptide) [compound 55] — lower, 1.663
- 41 (KYRQRKKSKY; Synthetic construct of novel peptide) [compound 41] — lower, 1.546
- 16 (KYQRKRRSKY; Synthetic construct of novel peptide) [compound 16] — higher, 1.739
- 23 (KYQRKKRNYK; Synthetic construct of novel peptide) [compound 23] — higher, 2.171
- 91 (KYKQRRKSYK; Synthetic construct of novel peptide) [compound 91] — higher, 4.362
- 26 (KYQRRKRSYK; Synthetic construct of novel peptide) [compound 26] — higher, 2.193
- 65 (KYKQRKKNKY; Synthetic construct of novel peptide) [compound 65] — higher, 1.723
- 44 (KYRQRRRSKY; Synthetic construct of novel peptide) [compound 44] — higher, 1.793
- 83 (KYKQRRKNYK; Synthetic construct of novel peptide) [compound 83] — higher, 3.572
- 72 (KYKQKRRNKY; Synthetic construct of novel peptide) [compound 72] — higher, 2.011
- 11 (KYQRRRKSKY; Synthetic construct of novel peptide) [compound 11] — lower, 1.639
- 33 (KYRQRKKNKY; Synthetic construct of novel peptide) [compound 33] — higher, 1.712
- 27 (KYQRRRKSYK; Synthetic construct of novel peptide) [compound 27] — higher, 1.993
- 20 (KYQRRRRNYK; Synthetic construct of novel peptide) [compound 20] — higher, 2.553
- 57 (KYRQRKKSYK; Synthetic construct of novel peptide) [compound 57] — higher, 2.039
- 94 (KYKQKRKSYK; Synthetic construct of novel peptide) [compound 94] — higher, 3.836
- 47 (KYRQKKRSKY; Synthetic construct of novel peptide) [compound 47] — lower, 1.697
- 68 (KYKQRRRNKY; Synthetic construct of novel peptide) [compound 68] — lower, 1.432
- 8 (KYQRKRRNKY; Synthetic construct of novel peptide) [compound 8] — lower, 1.639
- 48 (KYRQKRRSKY; Synthetic construct of novel peptide) [compound 48] — lower, 1.558
- 75 (KYKQRRKSKY; Synthetic construct of novel peptide) [compound 75] — higher, 1.997
- 53 (KYRQKKKNYK; Synthetic construct of novel peptide) [compound 53] — lower, 1.592
- 84 (KYKQRRRNYK; Synthetic construct of novel peptide) [compound 84] — higher, 3.702
- 73 (KYKQRKKSKY; Synthetic construct of novel peptide) [compound 73] — higher, 2.035
- 63 (KYRQKKRSYK; Synthetic construct of novel peptide) [compound 63] — higher, 1.769
- 7 (KYQRKKRNKY; Synthetic construct of novel peptide) [compound 7] — higher, 1.864
- 85 (KYKQKKKNYK; Synthetic construct of novel peptide) [compound 85] — higher, 3.670
- 25 (KYQRRKKSYK; Synthetic construct of novel peptide) [compound 25] — higher, 2.371
- 93 (KYKQKKKSYK; Synthetic construct of novel peptide) [compound 93] — higher, 4.525
- 59 (KYRQRRKSYK; Synthetic construct of novel peptide) [compound 59] — higher, 1.792
- 54 (KYRQKRKNYK; Synthetic construct of novel peptide) [compound 54] — lower, 1.437
- 82 (KYKQRKRNYK; Synthetic construct of novel peptide) [compound 82] — higher, 3.361
- 70 (KYKQKRKNKY; Synthetic construct of novel peptide) [compound 70] — higher, 1.927
- 10 (KYQRRKRSKY; Synthetic construct of novel peptide) [compound 10] — higher, 1.746
